Test results as given in PubChem BioAssay (NCI).
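Each compound was tested at five concentrations against cells in 96-well plates for 48 hours. GI50: concentration for 50% inhibition of growth. TGI denotes the concentration required for complete inhibition of growth.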 Where a SMILES comes first, the peptide text is derived from it. [ ]: non-standard residue; d: D form. The star is where a group is joined. ξ: configuration not given here. ξF = NC(Cc1ccccc1)C(=O)O; Cbz = O=C(OCc1ccccc1)*; Aib = CC(C)(N)C(=O)O

How the values were obtained:
Assay in all cases: growth of human tumour cells (NCI), 48 h
[1] = tested on: 786-0 renal
[2] = tested on: DU-145 prostate
[3] = tested on: HCC-2998 colon
[4] = tested on: LOX IMVI melanoma
[5] = tested on: MDA-MB-435
[6] = tested on: MDA-N
[7] = tested on: NCI-H23 lung
[8] = tested on: OVCAR-4 ovarian
[9] = tested on: SF-539 CNS

| Compound | TGI [1] | TGI [2] | TGI [3] | TGI [4] | TGI [5] | TGI [6] | TGI [7] | TGI [8] | TGI [9] | GI50 [2] | GI50 [3] | GI50 [4] | GI50 [5] | GI50 [7] | GI50 [8] | GI50 [9] |
| --- | --- | --- | --- | --- | --- | --- | --- | --- | --- | --- | --- | --- | --- | --- | --- | --- |
| Cc1nc2ccc(S(=O)(=O)Nc3ccc(Cl)cc3)cc2c(=O)n1NC(=O)CNc1ccc(Cl)cc1 | > 100 µM | > 100 µM | > 100 µM | > 100 µM | > 100 µM | > 100 µM | > 100 µM | > 100 µM | > 100 µM | – | – | – | – | – | – | – |
| Cc1ccc(C(=O)OC[C@H]2CC[C@@H](n3cc(N(C)C4CCCCC4)c(=O)[nH]c3=O)O2)cc1 | > 100 µM | > 100 µM | > 100 µM | 38.2 µM | > 100 µM | 90.7 µM | > 100 µM | 68.4 µM | 53 µM | – | – | – | – | – | – | – |
| COc1ccc2c(c1)OC(c1cccnc1)C(c1ccccc1)C2=O (configuration not stated) | > 100 µM | > 100 µM | > 100 µM | > 100 µM | > 100 µM | > 100 µM | > 100 µM | > 100 µM | > 100 µM | – | – | – | – | – | – | – |
| CN(C)c1ccc(/C=N/Nc2nc3ccccc3c(=O)n2-c2ccccc2)cc1 | 83.3 µM | > 100 µM | > 100 µM | > 100 µM | > 100 µM | > 100 µM | > 100 µM | 70.2 µM | 72 µM | – | – | – | – | – | – | – |
| Cc1ccc(F)cc1NC(=O)O/N=C(\Cl)C(C)C | 15.7 µM | 33.5 µM | 34.4 µM | 4.79 µM | 32.2 µM | 11.8 µM | > 56.9 µM | 33.1 µM | 18.1 µM | – | – | – | – | – | – | – |
| CN(C)c1ccc(N2C(=S)SC(=Nc3ccccc3)C2=Nc2ccccc2)cc1 | – | > 100 µM | > 100 µM | – | > 100 µM | > 100 µM | > 100 µM | > 100 µM | – | – | – | – | – | – | – | – |
| COC(=O)/C=C\Sc1ccn(/C=C\C(=O)OC)c(=S)n1 | – | > 100 µM | > 100 µM | 9.35 µM | 86.6 µM | > 100 µM | 64.3 µM | 35.3 µM | 36.9 µM | – | – | – | – | – | – | – |
| CC(C)(NC(=O)OCc1ccccc1)C(=O)NC(Cc1ccccc1)C(=O)O (configuration not stated) (Cbz-[Aib]-[ξF]-OH) | > 100 µM | > 100 µM | – | > 100 µM | > 100 µM | > 100 µM | > 100 µM | > 100 µM | > 100 µM | – | – | – | – | – | – | – |
| NCCC(N)C(=O)O (configuration not stated) | > 100 µM | > 100 µM | – | > 100 µM | > 100 µM | > 100 µM | > 100 µM | > 100 µM | > 100 µM | – | – | – | – | – | – | – |
| CC(=O)O[C@H]1CC[C@@]2(C)C(=CC[C@@H]3[C@@H]2CC[C@]2(C)C(c4cccnc4)=CC[C@@H]32)C1 | – | > 100 µM | > 100 µM | > 100 µM | > 100 µM | – | > 100 µM | > 100 µM | > 100 µM | 22.3 µM | 14 µM | 6.49 µM | 3.03 µM | 6.6 µM | 4.61 µM | 3.14 µM |
| CCC1C(=O)C[C@H]2[C@@H]3C(O)CC4=CC(=O)CC[C@]4(C)[C@H]3CC[C@]12C (some centres not stated) | > 50 µM | > 50 µM | > 50 µM | > 50 µM | > 50 µM | – | > 50 µM | > 50 µM | > 50 µM | – | – | – | – | – | – | – |
| CC(C)(C)OC(=O)n1cc(C2CNC(=O)C23CCC(=O)N3Cc2ccccc2)c2ccccc21 (configuration not stated) | 44.8 µM | 55.4 µM | – | 44 µM | 42.3 µM | 85.5 µM | 57.1 µM | 36.2 µM | 38.4 µM | – | – | – | – | – | – | – |
| COC(=O)/C=C/c1ccccc1N=[S@](C)(=O)c1ccc(C)cc1 | > 100 µM | > 100 µM | 50.1 µM | > 100 µM | 16.2 µM | – | > 100 µM | > 100 µM | > 100 µM | – | – | – | – | – | – | – |
| CC(=O)OC[C@H]1O[C@@H](O[C@H]2[C@H](OC(C)=O)C=CO[C@@H]2COC(C)=O)C(OC(C)=O)[C@H]2OC(C)(C)O[C@H]21 (some centres not stated) | > 100 µM | – | > 100 µM | > 100 µM | > 100 µM | – | > 100 µM | > 100 µM | > 100 µM | – | – | – | – | – | – | – |
| CC1=NOC2(C1)/C(=N/O)CCC/C2=N\O (configuration not stated) | > 100 µM | – | > 100 µM | > 100 µM | > 100 µM | > 100 µM | > 100 µM | > 100 µM | > 100 µM | – | – | – | – | – | – | – |
| COc1ccc2c(c1)O[C@@H]1C(O)Oc3cc(OC)c(OC)cc3[C@]1(O)C2=O (some centres not stated) | > 100 µM | > 100 µM | – | > 100 µM | > 100 µM | > 100 µM | > 100 µM | > 100 µM | > 100 µM | – | – | – | – | – | – | – |
| S=C1c2ccccc2NC(=NC2CCCC2)C2CSCN12 (configuration not stated) | > 100 µM | > 100 µM | > 100 µM | > 100 µM | > 100 µM | – | – | > 100 µM | – | – | – | – | – | – | – | – |
| Cc1ccc([N+](=O)[O-])cc1S(=O)(=O)Nc1ccc(C2=NN(c3ccc([N+](=O)[O-])cc3[N+](=O)[O-])C(c3ccccc3)C2)cc1 (configuration not stated) | 30.3 µM | 38.9 µM | – | 32.2 µM | 47.4 µM | 35.5 µM | 31.5 µM | 73.7 µM | 50.8 µM | – | – | – | – | – | – | – |
| C=CC[C@H]1[C@@H](O[Si](C)(C)C(C)(C)C)[C@H](n2ccc(=O)[nH]c2=O)O[C@@H]1CO[Si](C)(C)C(C)(C)C | 3.01 µM | 6.64 µM | 3.74 µM | 3.44 µM | 4.36 µM | – | 5.93 µM | 5.97 µM | 10.4 µM | – | – | – | – | – | – | – |
| COc1ccc(CCn2cnc3ccccc32)cc1 | > 100 µM | > 100 µM | > 100 µM | – | > 100 µM | > 100 µM | > 100 µM | > 100 µM | > 100 µM | – | – | – | – | – | – | – |
| Cc1cnoc1NC1=CC(=O)C(=O)c2ccccc21 | > 100 µM | 61.2 µM | – | > 100 µM | 2.64 µM | 3.01 µM | 32.7 µM | > 100 µM | 58.2 µM | – | – | – | – | – | – | – |
| CC(=O)OC(Cc1cc(C=C(C(F)(F)F)C(F)(F)F)cc(C)n1)(C(F)(F)F)C(F)(F)F | – | 6.84 µM | 13.3 µM | 3.49 µM | 2.83 µM | – | 3.32 µM | 4.76 µM | 5.27 µM | – | – | – | – | – | – | – |
| C=CCC(C)C12CCNC(Cc3ccc(O)cc31)C2C (configuration not stated) | > 100 µM | > 100 µM | > 100 µM | > 100 µM | > 100 µM | – | > 100 µM | > 100 µM | > 100 µM | – | – | – | – | – | – | – |
| O=C(Nc1ccccc1F)c1c(O)nc2sccn2c1=O | – | > 10 µM | > 10 µM | > 10 µM | > 10 µM | > 10 µM | > 10 µM | > 10 µM | > 10 µM | – | – | – | – | – | – | – |
